Results: patent US20050267182A1, “Urea derivatives as FLT-3 modulators” (Ambit Biosciences Corporation, priority 2003, published 2005)

Target: T1, FLT3 (Homo sapiens, UniProt P36888)
T1 construct: FLT3(DKIN); made in house
T1 sequence (P36888 610-943 limits assumed): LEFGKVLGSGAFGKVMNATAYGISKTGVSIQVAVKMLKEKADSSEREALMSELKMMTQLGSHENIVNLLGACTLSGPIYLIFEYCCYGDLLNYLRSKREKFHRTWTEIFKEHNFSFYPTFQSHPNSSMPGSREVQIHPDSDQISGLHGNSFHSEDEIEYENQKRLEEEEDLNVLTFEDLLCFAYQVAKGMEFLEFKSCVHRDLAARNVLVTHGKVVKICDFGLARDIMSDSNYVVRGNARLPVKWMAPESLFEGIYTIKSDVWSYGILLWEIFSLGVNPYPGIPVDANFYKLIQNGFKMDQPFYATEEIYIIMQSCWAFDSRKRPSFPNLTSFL
Test: Binding constant (Kd) measurement, phage-displayed kinase competition binding assay
Conditions: FLT3(DKIN) construct
Description: Binding Constant (Kd) Measurements for Small-Molecule-Kinase Interactions
The term “ND” represents non-determined values.

Row | Binding Assay: FLT3(DKIN) | Kd [µM] | SMILES
1 | + + + |  | Cc1cc(NC(=O)Nc2ccc(OCc3ccccc3)cc2)n(-c2ccccc2)n1 [Compound H4]
2 | + + + |  | CC(C)(C)c1cc(NC(=O)Nc2ccc(F)cc2)no1 [Compound A47]
3 | + + + + |  | CC(C)(C)c1cc(NC(=O)Nc2ccc(OCC(O)CO)cc2)no1 (stereo not drawn) [Compound G28]
4 | + + |  | CC(C)c1ccc(NC(=O)Nc2cc(C(C)(C)C)no2)cc1 [Compound A11]
5 | + + |  | COc1ccc(N2CCCN(c3cc(C(C)(C)C)no3)C2=O)cc1 [Compound E5]
6 | + + + |  | CC(C)(C)c1cc(NC(=O)Nc2ccc(-c3nc(-c4ccc(C(F)(F)F)cc4)no3)cc2)no1 [Compound P8]
7 | + + + + |  | Cc1ccc(CNc2ccc(NC(=O)Nc3cc(C(C)(C)C)on3)cc2)cc1 [Compound O9]
8 | + + + |  | O=C(Nc1ccc(OCc2ccccc2)cc1)Nc1cc(C2CC2)nn1-c1ccccc1 [Compound H8]
9 | + + + |  | CC(C)(C)c1cc(NC(=O)Nc2ccc(Cl)cc2)no1 [Compound A27]
10 | + + + |  | CC(C)(C)c1cc(NC(=O)Nc2cc(C(C)(C)C)on2)on1 [Compound A54]
11 | + + + |  | CCCCc1ccc(NC(=O)Nc2cc(C(C)(C)C)nn2C)cc1 [Compound D12]
12 | + + + |  | CCOC(=O)NN(C(=O)Nc1cc(C(C)(C)C)on1)c1ccc(OC)cc1 [Compound J13]
13 | + + + |  | COc1ccc(N(C)C(=O)Nc2cc(C(C)(C)C)on2)cc1 [Compound J10]
14 | + + + + |  | CC(C)(C)c1cc(NC(=O)Nc2ccc(Oc3ccccc3)cc2)no1 [Compound A24]
15 | + + + |  | Cc1ccc(-n2nc(C(C)(C)C)cc2NC(=O)Nc2ccc(O)cc2)cc1 [Compound H12]
16 |  | > 10 | COc1ccc(N(C)C(=O)N(C)c2cc(C(C)(C)C)no2)cc1 [Compound J8]
17 | + + + |  | CC(C)(C)c1cc(NC(=O)Nc2ccc(C(=O)NCCO)cc2)no1 [Compound N87]
18 | + + + |  | CC(C)(C)c1cc(NC(=O)Nc2ccc(NC(=O)Cc3ccc(OCc4ccccc4)cc3)cc2)no1 [Compound N98]
19 | + + + |  | CC(C)(C)c1cc(N2CCCN(c3ccc(OCc4ccccc4)cc3)C2=O)on1 [Compound E2]

Row | Binding Assay: FLT3(DKIN) | Kd [µM] | SMILES
20 |  | > 10 | CC(C)(C)c1cc(NC(=O)Nc2ccc(S(=O)(=O)Nc3ncccn3)cc2)no1 [Compound V3]
21 | + + + + |  | Cc1ccc(NC(=O)Nc2cc(C(F)(F)F)cc(Cl)n2)cc1 [Compound W1]
22 | + + + |  | Cn1nc(C(C)(C)C)cc1NC(=O)Nc1ccc(Cl)cc1 [Compound D11]
23 | + + + |  | CC(C)(C)c1cc(NC(=O)Nc2ccccc2)no1 [Compound A34]
24 | + + + |  | CC(C)(C)c1cc(NC(=O)Nc2ccc(Cl)cc2)on1 [Compound A32]
25 | + + |  | CC(C)(C)c1cc(NC(=O)Nc2ccc(CC(=O)O)cc2)no1 [Compound C3]
26 | + + |  | CC(C)(C)c1cc(NC(=O)Nc2ccc(NS(=O)(=O)c3ccccc3)cc2)no1 [Compound V1]
27 | + + + |  | C/C=C/C(=O)Nc1ccc(NC(=O)Nc2cc(C(C)(C)C)on2)cc1 [Compound N93]
28 | + + + + |  | Cc1ccc(NC(=O)Nc2cc(C(C)(C)C)on2)cc1 [Compound A33]
29 | + + + + |  | COc1ccc(NC(=O)Nc2cc(C(C)(C)C)nn2-c2ccc(C)cc2)cc1 [Compound H15]
30 | + + |  | Cn1nc(C2CC2)cc1NC(=O)Nc1ccc(OCc2ccccc2)cc1 [Compound H7]
31 | + + + |  | CC(C)(C)c1cc(NC(=O)NN2CCCCC2)no1 [Compound Z57]
32 | + + + |  | CN1CN(c2ccc(OCc3ccccc3)cc2)C(=O)N(c2cc(C(C)(C)C)on2)C1 [Compound E4]
33 |  | > 10 | CC(C)(C)c1cc(NC(=S)Nc2ccc(N3CCOCC3)cc2)no1 [Compound F1, 1-(5-tert-butylisoxazol-3-yl)-3-(4-morpholinophenyl)thiourea]
34 | + + + |  | O=C(Nc1cccc(Cl)c1)Nc1cc(C(F)(F)F)cc(Cl)n1 [Compound Z74]
35 | + + + |  | CC(C)(C)c1cc(NC(=O)Nc2ccc(C(=O)NCc3ccc4c(c3)OCO4)cc2)no1 [Compound N97]
36 | + + + |  | CC(C)(C)c1cc(NC(=O)Nc2ccc(OCCN3CCOCC3)c3ccccc23)no1 [Compound K1]
37 | + + + |  | C[S+]([O-])c1ccc(NC(=O)Nc2cc(C(C)(C)C)on2)cc1 (stereo not drawn) [Compound A46]
38 | + + + + |  | CC(C)(C)c1cc(NC(=O)Nc2ccc(C(N)=O)cc2)no1 [Compound N86]

Row | Binding Assay: FLT3(DKIN) | Kd [µM] | SMILES
39 | + + + |  | CC(C)(C)c1cc(NC(=O)Nc2ccc(Cl)cc2Cl)no1 [Compound A7]
40 | + + + |  | CC(C)(C)c1cc(NC(=O)Nc2ccc3cc4ccccc4cc3c2)no1 [Compound A18]
41 | + + |  | CC(C)(C)c1cc(NC(=O)Nc2ccc(OC(F)F)cc2)no1 [Compound A12]
42 | + + + + |  | CC(Oc1ccc(NC(=O)Nc2cc(C(C)(C)C)on2)cc1)c1ccccc1 (stereo not drawn) [Compound G17]
43 | + + + |  | Cn1nc(C(C)(C)C)cc1NC(=O)Nc1ccc(F)cc1 [Compound Z19]
44 | + + + + |  | COc1ccc(NC(=O)Nc2cc(C(C)(C)C)on2)cc1 [Compound A29]
45 | + + + + |  | CC(C)(C)c1cc(NC(=O)Nc2ccc(NC(=O)C3CCCCC3)cc2)no1 [Compound N91]
46 | + + |  | CC(C)(C)c1cc(NC(=O)Nc2ccc(OC(F)(F)F)cc2)on1 [Compound A13]
47 | + + + |  | CC(C)(C)c1cc(NC(=O)Nc2ccc(NC(=O)c3c(F)cccc3C(F)(F)F)cc2)no1 [Compound N95]
48 | + + + + |  | Cc1ccc(-n2nc(C(C)(C)C)cc2NC(=O)Nc2cc(C(C)(C)C)on2)cc1 [Compound H11]
49 | + + + + |  | O=C(Nc1ccc(Cl)cc1)Nc1cc(C2CC2)nn1-c1ccccc1 [Compound D2]
50 | + + + + |  | COc1cccc(CNC(=O)Nc2cc(C(C)(C)C)on2)c1 [Compound B3]
51 | + + + |  | O=C(Nc1ccc(Br)cc1)Nc1cc(C(F)(F)F)cc(Cl)n1 [Compound Z72]
52 | + + + |  | O=C(Nc1ccc(Cl)cc1)Nc1cc(C(F)(F)F)cc(Cl)n1 [Compound Z76]
53 | + + + |  | CC(C)(C)c1cc(NC(=O)Nc2ccc(Cl)c(C(F)(F)F)c2)no1 [Compound A1, 1-(5-tert-butylisoxazol-3-yl)-3-(4-chloro-3-(trifluoromethyl)phenyl)urea]
54 | + + + |  | C[C@H](NC(=O)c1ccc(NC(=O)Nc2cc(C(C)(C)C)on2)cc1)c1ccccc1 [Compound N88]
55 | + + + |  | CC(C)(C)c1cc(NC(=O)Nc2ccc(C(=O)NCc3ccccc3)cc2)no1 [Compound N89]
56 | + + + |  | CC(C)(C)c1cc(NC(=O)Nc2cccc(Cl)c2)no1 [Compound A48]
57 | + + + + |  | CC(C)(C)c1cc(NC(=O)Nc2ccc(NC(=O)c3c(Cl)cccc3Cl)cc2)no1 [Compound N94]
